These results are taken from US20140128333A1, “Compounds, Compositions, and Methods for Decreasing Intestinal Glucose Uptake and Inducing Incretin Release” (MAQUI NEW LIFE S.A., priority 2012, published 2014).

One assay addresses T1, GPR40 receptor (Homo sapiens, UniProt O14842).
T1 construct: To assess and ensure the participation of GPR40 on calcium mobilization induced by delphinidin and cyanidin, Fura-2/AM-loaded HT-29 cells; endogenous in cells; host or cells: HT-29 cells
The assay is described as follows: Measurement of calcium influx in Fura-2/AM-loaded HT-29 cells. The class given is cell-based. The note with it: 100 μM.

For a further assay, the system named is GLP-1 mRNA expression. Kind of assay: GLP-1 mRNA expression in NCI-H716 cells by qRT-PCR. The settings on record: delphinidin 10, 50 or 100 μM tested, increase at 50 and 100 μM, 24 h. The format is cell-based. As for the experimental part:
Total RNA was isolated from […] cells using the RNeasy Plus Mini Kit according to the manufacturer's instructions. Approximately 1 μg of total RNA, 0.5 μg of oligo (dT)18 primer, 10 mM dNTPs and 200 U of reverse transcriptase were used for each cDNA synthesis reaction. PCR amplifications were performed using the Brilliant II SYBR Green QPCR Master Mix (Stratagene) according to the manufacturer's instructions. All reactions were carried out using an Mx300p thermal cycler (Stratagene, Calif., USA). GLP-1 specific primers were used.
A general note: Real-time PCR tracks product formation cycle by cycle.

Another assay has as its target T2, SGLT-1 (Mus musculus, UniProt Q8C3K6).
T2 construct: Two sections of jejunum per animal were mounted in Ussing Chambers; from tissue; host or cells: jejunum of C57Bl/6J mice
T2 sequence (Q8C3K6 1-665): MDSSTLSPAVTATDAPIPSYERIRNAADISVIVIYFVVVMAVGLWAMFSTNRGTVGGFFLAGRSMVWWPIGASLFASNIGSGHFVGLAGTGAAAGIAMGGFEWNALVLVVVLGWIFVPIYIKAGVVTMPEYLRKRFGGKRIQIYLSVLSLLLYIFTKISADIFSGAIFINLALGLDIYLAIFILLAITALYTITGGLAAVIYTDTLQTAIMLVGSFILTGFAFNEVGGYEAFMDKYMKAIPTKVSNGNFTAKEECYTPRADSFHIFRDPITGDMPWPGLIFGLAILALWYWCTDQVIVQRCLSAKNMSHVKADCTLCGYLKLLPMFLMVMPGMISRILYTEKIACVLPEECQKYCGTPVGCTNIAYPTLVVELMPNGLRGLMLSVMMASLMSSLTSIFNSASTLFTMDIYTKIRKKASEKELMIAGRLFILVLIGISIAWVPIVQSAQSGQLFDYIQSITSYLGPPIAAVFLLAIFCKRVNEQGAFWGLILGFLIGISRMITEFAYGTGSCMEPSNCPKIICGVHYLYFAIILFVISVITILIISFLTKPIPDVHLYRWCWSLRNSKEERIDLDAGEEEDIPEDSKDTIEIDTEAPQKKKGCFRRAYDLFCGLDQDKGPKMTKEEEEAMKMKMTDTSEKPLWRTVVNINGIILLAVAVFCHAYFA
Kind of assay: Ussing chamber: sodium-coupled D-glucose transport in mouse jejunum (short circuit current). The note with it: 50 μM delphinidin on mucosal side. The text has this:
C57B1/6J mice were obtained from The Jackson Laboratory (Bar Harbor, Me., USA). The mice were maintained at the Specific Pathogen Free mouse facility of the Centro de Estudios Científicos (CECS), Valdivia, Chile and prior to the experiments they had free access to water and food. Animals were killed by cervical dislocation according to local Institutional Animal Care and Use Committee (IACUC) regulations. The jejunum was isolated, open longitudinally along the mesenteric border and rinsed with phosphate buffered saline (PBS).
Two sections of jejunum per animal were mounted in Ussing Chambers and maintained in Ussing buffer (120 Mm NaCl, 25 mM NaHCO3, KH2PO4 3.3 mM, 0.8 mM K2HPO4, 1.2 mM MgCl2 and 1.2 mM CaCl2) supplemented with 10 mM D-glucose in the serosal side. […] The effect of delphinidin on sodium-coupled transport of glucose was determined by application of this molecule at a concentration of 50 μM in the mucosal side of the preparation. The transepithelial electrical potential difference (VM), defined as the potential side compared to serous mucus preparation was recorded continuously under current clamp configuration using a VCC MC2 amplifier (Physiological Instruments). The values of short circuit current (Isc) were calculated from experimental data using Ohm's law. The results are expressed as the intensity of the Isc (μA/cm^2). […]

Another assay concerns GLP-1 production. Kind of assay: GLP-1 production in NCI-H716 cells by flow cytometry. The class given is cell-based. The note with it: 50 μM delphinidin, 48 hrs, Brefeldin A. As for the experimental part:
After two washes in PBS, the cells were stained with mouse anti-GLP-1 antibody for 1 hr at 4° C. The cells were washed twice with PBS, incubated for 1 hr at 4° C. with anti-mouse Alexa 488 (1:200 dilution) and finally washed twice with PBS. The cells were assessed by flow cytometry on a FACSCanto II (Becton Dickinson).

“Also recorded” adds a separate entry of the source.

T1 sequence (O14842 whole entry): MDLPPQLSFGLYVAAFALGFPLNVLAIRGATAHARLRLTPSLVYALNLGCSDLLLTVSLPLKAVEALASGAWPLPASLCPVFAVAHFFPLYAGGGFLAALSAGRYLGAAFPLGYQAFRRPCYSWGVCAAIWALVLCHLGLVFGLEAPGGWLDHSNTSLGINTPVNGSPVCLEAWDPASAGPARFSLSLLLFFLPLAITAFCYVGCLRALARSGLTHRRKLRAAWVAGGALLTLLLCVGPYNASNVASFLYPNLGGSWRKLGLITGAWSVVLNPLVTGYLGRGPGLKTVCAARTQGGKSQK
Procedure for GPR40 receptor: HT-29 cells were suspended in HBSS at a concentration of 20×10^6 cells/ml and incubated with 1 μM Fura-2/AM (Molecular Probes) for 30 min at 37° C. The cells were then washed twice, divided into 2×10^6 cells/ml aliquots and maintained at 4° C. in the dark until use. Cells were then pelleted by centrifugation at 1200 rpm for 6 min and re-suspended in 2 ml HEPES buffer [20 mM HEPES, pH 7.2; 140 mM NaCl; 10 mM glucose; 1 mM KCl; 1 mM Ca^2+ chloride (CaCl2); and 1 mM MgCl2].
The influx of Ca^2+ was recorded as the 340:380 excitation ratio at 509 nm emission in a LS55 thermoregulated spectrofluorimeter (Perkin-Elmer, Mass., USA).

For `Oc1cc(O)c2cc(O)c(-c3cc(O)c(O)c(O)c3)[o+]c2c1` [Delphinidin, 2-(3,4,5-trihydroxyphenyl)chromenylium-3,5,7-triol], the “calcium fluxes (340/380 ratio) in HT-29 cells” value on GPR40 receptor is reported as “induces calcium fluxes”. Further, in the assay on GLP-1 mRNA expression, the “expression of GLP-1 mRNA with respect to control” value was “induces; also recorded: increased”. Also, the “decrease of sodium current (Isc) induced by 10 mM D-glucose / inhibition of glucose transport by jejunal mucosa” value on SGLT-1 (n=4) is “about 40%”; on SGLT-1 (n=4, listed as delphinidin), “approximately 60%”. In the assay on GLP-1 production, the “amount of GLP-1 compared to control cells” value is recorded as “induced an increase”.
